# Data published in patent publication US8092974B2, “Production method of toner for developing electrostatic image” (Zeon Corporation, priority 2006, dated 2012).
# Experiment: Average number of small diameter microparticles per colored resin particle (SEM count after polymerization)
# Conditions: aqueous dispersion after polymerization process; SEM 5,000 magnification, 25 particles
# Source text: The average number of small diameter microparticles per colored resin particle is a value calculated in such a manner that aqueous dispersion containing colored resin particles after polymerization process is collected and prepared to be a sample for measurement with a scanning electron microscopy (SEM); the prepared sample is photographed at 5,000 magnification in five fields of view by means of the scanning electron microscopy; five colored resin particles are randomly selected in each image; the number of small diameter microparticles observed on the surface of 25 colored resin particles in total is counted; and the average number of small microparticles per colored resin is calculated therefrom.
# The number of small diameter microparticles per colored resin particle can be measured by means of a commercially available scanning electron microscopy. For example, it can be measured by means of a field emission scanning electron microscopy (product name: S-4700; manufactured by: Hitachi, Ltd.). […]
# The sample was randomly photographed in five fields of view, and five colored resin particles were randomly selected in each image to count the number of small diameter microparticles observed on the surface of 25 colored resin particles in total. The average number of small diameter microparticles per colored resin particle was calculated therefrom.
compound,measurement,value
"Oc1ccc(O)cc1 [A, Hydroquinone]",Average number of small diameter microparticles per colored resin particle,weak
